“Also recorded” adds a separate entry of the source.
What was measured:
[1] = tested on: healthy elderly male and female subjects; conditions: in vivo
[2] = tested on: healthy, male and female subjects; test: Driving performance (real driving on the road) after evening and middle of the night dosing; assay type: in vivo, human; conditions: for effect on memory test, body sway, DSST or critical tracking: cognitive and psychomotor test battery; for effect on memory test, body sway, DSST or critical tracking / effect on driving: gaboxadol 15 mg; for tolerability / most frequent adverse events: 15 mg; for effect on driving: driving test at 9 am
Source text: The study participants included healthy, male and female subjects between 21 and 45 years of age, with a valid drivers license for at least 3 years.
Following a cognitive and psychomotor test battery, the driving test started at 9 am and lasted for one hour.

[3] = tested on: healthy adults subjected to a 5-hour sleep restriction; test: Daytime performance after sleep restriction (MSLT, SWS, KSS, neurobehavioral battery); assay type: in vivo, human
Procedure: The study included a 2-night single-blind placebo run-in period, a 4-night double-blind treatment period during which sleep was restricted to 5 hours and a 2-night single-blind placebo run-out period. The study included healthy male and female volunteers 18 to <55 years of age.
2-night run-in period: All patients received placebo ?
2-night run-out period: All patients received placebo
The primary endpoints included observations based on the Multiple Sleep Latency Test (MSLT) and Slow Wave Sleep (SWS) assessment.

[4] = tested on: Purkinje cells in cerebellar brain slices; conditions: low doses; cited from earlier work
[5] = tested on: subjects with Angelman syndrome; test: Adverse events in 12-week placebo-controlled Angelman syndrome trial; assay type: in vivo, human
[6] = tested on: patients with a history of drug abuse; conditions: cited from earlier work
[7] = tested on: subjects with Angelman syndrome; test: Clinical Global Impressions (CGI-S, CGI-I) in 12-week placebo-controlled Angelman syndrome trial; assay type: in vivo, human; conditions: for percentage very much improved on CGI-I: QD group; for responders (one point or greater improvement in the CGI-I scale): once daily dose
Source text: CGI-S scale assessed all sub-domains of Angelman syndrome (gross and fine motor ability, sleep, and adaptive behavior) plus globally by the investigator. […] The Clinical Global Impressions-Improvement (CGI-I) scale was used to assess all sub-domains of Angelman syndrome (gross and fine motor ability, sleep, and adaptive behavior) plus globally by the investigator and caregiver. CGI-I is a 7-point scale in which the investigator rates the improvement or worsening of symptoms compared to baseline.

[8] = tested on: subjects with Angelman syndrome; test: Sleep diary in 12-week placebo-controlled Angelman syndrome trial; assay type: in vivo, human; conditions: for 6-week LS Mean sleep time (total sleep time at night) / 12-week LS Mean sleep time (total sleep time at night): sleep diary
Procedure: This multicenter, randomized, parallel (3-arm), double-blind, placebo-controlled trial enrolled 88 patients including adults (n=66) and adolescents (n=22) aged 13 to 49 years of age, diagnosed with Angelman syndrome. […] The dosing schedules that were assessed against placebo were once daily (QD): An evening dose titrated to the target dose of 15 mg unless not tolerated; and twice daily (BID): Evening and morning doses titrated to the target doses of 15 mg evening dose and 10 mg morning dose unless not tolerated.
The observed and change from baseline in total hours of sleep time at night (assessed from subject Sleep Diary) is provided in Table III.

Ube3a-deficient mice = conditions: low doses; Ube3a-deficient mice in vivo; cited from earlier work
[9] = Plasma concentration profiles, dose proportionality and absolute bioavailability of gaboxadol after single oral doses and 10 mg IV; conditions: geometric mean, N = 10
insomnia = conditions: three-month efficacy study; cited from earlier work
[10] = middle-of-the-night (4 am) administration, zolpidem 10 mg
[11] = BID dosing (10 mg morning, 15 mg evening), N = 29

Oc1noc2c1CCNC2 [gaboxadol, 4,5,6,7-tetrahydroisoxazolo [5,4-c]pyridine-3-ol]
residual effect on primary endpoints Choice Reaction Time and Critical Flicker Fusion [1]: did not show residual effect | residual effects on other measurements (MSLT, DSST, Tracking, Memory tests, Body Sway, Leeds Sleep Evaluation Questionnaire) [1]: did not show any signs of residual effects | effect on memory test, body sway, DSST or critical tracking ([2]; zopiclone 7.5 mg): no effect | tolerability ([2]; evening dose): well tolerated | most frequent adverse events ([2]; evening treatment): headache and somnolence | effect on driving compared with alcohol ([2]; gaboxadol 15 mg evening dose vs 0.05% blood alcohol concentration): less than the effect observed at a 0.05% blood alcohol concentration | effect on driving [2, 10]: clinically relevant impairing effect | tolerability ([2]; middle-of-the-night dose): well tolerated | most frequent adverse events ([2]; middle-of-the-night treatment): dizziness, nausea and somnolence | biophysiological measures of stress (heart rate variability, cortisol levels, catecholamine levels, body temperature) vs placebo ([3]; 15 mg vs placebo): no differences | daytime performance, effect sizes for the neurocognitive battery ([3]; 15 mg vs placebo): no strong evidence that gaboxadol improves daytime performance | subjective daytime sleepiness vs placebo ([3]; 15 mg, Sleep Restriction period): trend towards less subjective daytime sleepiness | amount of slow wave sleep (SWS) vs placebo ([3]; 15 mg, Sleep Restriction period, p<0.001, 1 sided): increases the amount of slow wave sleep; also recorded: significantly more SWS | daytime sleepiness (sleep propensity by MSLT) vs placebo ([3]; 15 mg, Sleep Restriction period, p=0.047, 1 sided): protective effect on reducing daytime sleepiness; also recorded: significantly less daytime sleepiness | MSLT longer than placebo, average ([3]; 15 mg, last two Sleep Restriction days): 2.01 min | Karolinska Sleepiness Score (KSS) less than placebo, average ([3]; 15 mg, last two Sleep Restriction days, p=0.058, 1 sided, LDA model): 0.68 | SWS longer than placebo, average ([3]; 15 mg, last two Sleep Restriction nights): 20.53 min | abnormal firing properties of a population of Purkinje cells [4]: improve the abnormal firing properties | subjects with Abdominal Pain upper, number (%) ([5]; BID dosing, N = 29): 0 | subjects with At least 1 Adverse Event, number (%) ([5]; BID dosing, N = 29): 19 (66%) | subjects with Diarrhea, number (%) ([5]; BID dosing, N = 29): 1 (3.4%) | subjects with Gastrointestinal disorders, number (%) ([5]; BID dosing, N = 29): 4 (13.8%) | subjects with Nausea, number (%) ([5]; BID dosing, N = 29): 2 (6.9%) | subjects with Retching, number (%) ([5]; BID dosing, N = 29): 1 (3.4%) | subjects with Vomiting, number (%) ([5]; BID dosing, N = 29): 1 (3.4%) | subjects with Abdominal Pain upper, number (%) ([5]; Combined, N = 58): 0 | subjects with At least 1 Adverse Event, number (%) ([5]; Combined, N = 58): 37 (64%) | subjects with Diarrhea, number (%) ([5]; Combined, N = 58): 1 (1.7%) | subjects with Gastrointestinal disorders, number (%) ([5]; Combined, N = 58): 4 (6.9%) | subjects with Nausea, number (%) ([5]; Combined, N = 58): 2 (3.4%) | subjects with Retching, number (%) ([5]; Combined, N = 58): 1 (1.7%) | subjects with Vomiting, number (%) ([5]; Combined, N = 58): 1 (1.7%) | subjects with Abdominal Pain upper, number (%) ([5]; QD dosing, N = 29): 0 | subjects with At least 1 Adverse Event, number (%) ([5]; QD dosing, N = 29): 18 (62%) | subjects with Diarrhea, number (%) ([5]; QD dosing, N = 29): 0 | subjects with Nausea, number (%) ([5]; QD dosing, N = 29): 0 | subjects with Retching, number (%) ([5]; QD dosing, N = 29): 0 | subjects with Vomiting, number (%) ([5]; QD dosing, N = 29): 0 | subjects with Gastrointestinal disorders, number (%) ([5]; QD dosing, N = 29, placebo 6 of 29): 0 | psychiatric adverse events [6]: steep increase in psychiatric adverse events | CGI-I 6-week LS Mean [7, 11]: 3.54 (0.16) | CGI-I 12-week LS Mean [7, 11]: 3.58 (0.16) | CGI-I 6-week LS Mean difference ([7]; BID dosing minus placebo): −0.06 (0.21) | CGI-I 12-week LS Mean difference ([7]; BID dosing minus placebo): −0.21 (0.22) | CGI-I 6-week LS Mean ([7]; Combined QD and BID, N = 58): 3.45 (0.12) | CGI-I 12-week LS Mean ([7]; Combined QD and BID, N = 58): 3.29 (0.12) | CGI-I 6-week LS Mean difference ([7]; Combined minus placebo): −0.15 (0.18) | CGI-I 12-week LS Mean difference ([7]; Combined minus placebo): −0.49 (0.19) | CGI-I 6-week LS Mean ([7]; QD dosing (15 mg evening), N = 29, 7-point scale, clinician assessed): 3.54 (0.16) | CGI-I 6-week LS Mean difference ([7]; QD dosing minus placebo): −0.24 (0.21) | CGI-I 12-week LS Mean difference ([7]; QD dosing minus placebo): −0.78 (0.22) | percentage very much improved on CGI-I ([7]; 18-24 year old, placebo 9%): 27% | percentage very much improved on CGI-I ([7]; oldest cohort (25-49), placebo 11%): 20% | percentage very much improved on CGI-I ([7]; youngest cohort (13-17), placebo 0%): 33% | CGI-S Hyperactivity, change ([7]; QD, placebo 3.1 to 3.0): 3.5 to 2.9 | CGI-S Stereotypic behavior, change ([7]; QD, placebo 3.3 to 3.6): 3.7 to 3.1 | responders (one point or greater improvement in the CGI-I scale) in overall symptoms ([7]; once daily dose cohort, all ages, placebo 26%): 70% | responders (one point or greater improvement in the CGI-I scale) ([7]; 13-17 year old, placebo 29%): 83% | responders (one point or greater improvement in the CGI-I scale) ([7]; 18-24 year old, placebo 27%): 73% | responders (one point or greater improvement in the CGI-I scale) ([7]; 25-49 year old, placebo 22%): 60% | 6-week LS Mean difference, sleep time ([8]; BID dosing): 0.30 (1.1) hours | 12-week LS Mean difference, sleep time ([8]; BID dosing): 0.18 (0.97) hours | 6-week LS Mean sleep time (total sleep time at night) ([8]; BID dosing, N = 29): 8.95 (1.1) hours | 12-week LS Mean sleep time (total sleep time at night) ([8]; BID dosing, N = 29): 8.84 (1.1) hours | 6-week LS Mean difference, sleep time ([8]; Combined): 0.22 (0.94) hours | 12-week LS Mean difference, sleep time ([8]; Combined): 0.07 (1.0) hours | 6-week LS Mean sleep time (total sleep time at night) ([8]; Combined, N = 58): 8.93 (1.3) hours | 12-week LS Mean sleep time (total sleep time at night) ([8]; Combined, N = 58): 8.80 (1.1) hours | 6-week LS Mean difference, sleep time ([8]; QD dosing): 0.14 (0.81) hours | 12-week LS Mean difference, sleep time ([8]; QD dosing): −0.04 (1.1) hours | 6-week LS Mean sleep time (total sleep time at night) ([8]; QD dosing, N = 29): 8.91 (1.5) hours | 12-week LS Mean sleep time (total sleep time at night) ([8]; QD dosing, N = 29): 8.76 (1.2) hours | cerebellar ataxia (Ube3a-deficient mice): reduces cerebellar ataxia | Fe ([9]; 2.5 mg single oral dose): 43% | Fe ([9]; 5 mg single oral dose): 45% | Fe ([9]; 10 mg I.V.): 53% | Fe ([9]; 10 mg Oral): 53% | Fe ([9]; 15 mg single oral dose): 50% | Fe ([9]; 20 mg single oral dose): 53% | effects in sleep onset and sleep maintenance (insomnia): failed to show significant effects

Cc1ccc(-c2nc3ccc(C)cn3c2CC(=O)N(C)C)cc1 [zolpidem]
effect on driving [2, 10]: numerically greater effect

CN1CCN(C(=O)OC2c3nccnc3C(=O)N2c2ccc(Cl)cn2)CC1 (stereo not drawn) [zopiclone]
effect on memory test, body sway, DSST or critical tracking ([2]; zopiclone 7.5 mg): had effect on several of these tests | effect on driving ([2]; evening dose, zopiclone 7.5 mg): numerically greater effect

CCN(CC)CCN1C(=O)CN=C(c2ccccc2F)c2cc(Cl)ccc21 [Flurazepam]
residual effect on primary endpoints Choice Reaction Time and Critical Flicker Fusion [1]: showed significant effect

Source: patent publication US11096929B2 (Ovid Therapeutics Inc., priority 2015, dated 2021)
